Our source for the target mRNA inhibition values is the OligoGym collection.

Where “and” joins values, the source holds several entries; their conditions need not be identical. Equal values may be shown once. After the bases stand the sugars from the 5' end (letter, count) and the backbone: PS all phosphorothioate, else s phosphorothioate and o phosphodiester by linkage. Methylation of C is not given here. e = 2'-O-(2-methoxyethyl) (MOE); l = locked nucleic acid (LNA); k = constrained ethyl (cEt); d = 2'-deoxy (DNA)

For one data set, the target named is APOL1. The note with it: ASO.
The target of another data set is SNHG14. As to conditions: ASO, Human Neuronal Cell.

For the sequence GTCCTTACTGCAGTTT (sugars k4 d9 k3, PS), the target mRNA inhibition with APOL1 (A431, 0.0625 µM) came to 60%; with APOL1 (A431, 0.25 µM) it was 83%; with APOL1 (A431, 1 µM), 93%.
“CAGTTTTGTAAGTGCA (sugars kkddddkekekddddd, PS)” yielded a target mRNA inhibition with APOL1 (A431, 2 µM) of 91%.
For the sequence “GGAATTATGGAATTGC (sugars kkddddkekekkdddd, PS)”, the target mRNA inhibition with APOL1 (A431, 2 µM) was determined as 74%.
As for AGATTGGCTCAGTGAC (sugars k4 d9 k3, PS), the target mRNA inhibition is 44% and 27% in the data set with APOL1 (A431, 0.0625 µM); 70% and 52% in the data set with APOL1 (A431, 0.25 µM); 87% and 76% in the data set with APOL1 (A431, 1 µM).
Regarding TCCTTATGCTTACTCC (sugars k4 d9 k3, PS), the target mRNA inhibition with APOL1 (A431, 0.0625 µM) came to 50%; with APOL1 (A431, 0.25 µM) it was 80%; with APOL1 (A431, 1 µM), 93%.
Turning to “GTTATATTTGATCCTC (sugars kekddddeekkddddd, PS)”, the target mRNA inhibition in the data set with APOL1 (A431, 0.0156 µM) worked out at 37%; in the data set with APOL1 (A431, 0.04 µM), 31%; with APOL1 (A431, 0.0625 µM) it was 71%; in the data set with APOL1 (A431, 0.25 µM), 91%; in the data set with APOL1 (A431, 1 µM), 98%; with APOL1 (A431, 2 µM) it was 99%.
“ATTCTATTAGAGGGCT (sugars kkddddkekekkdddd, PS)” yielded a target mRNA inhibition with APOL1 (A431, 2 µM) of 34%.
Same read-out and setting: the result for “TTTAAACTCAGGTGAC (sugars kdddddkekekddddd, PS)” reads 45%.
On to TTTGGGTCAAAAGCGA (sugars k4 d9 k3, PS), for which the target mRNA inhibition in the data set with APOL1 (A431, 0.25 µM) is 66% and 85%; with APOL1 (A431, 1 µM) it was 83% and 93%.
“CTGTTCTAACTCTTGG (sugars kkkddddkekekdddd, PS)” came in with a target mRNA inhibition with APOL1 (A431, 2 µM) of 88%.
Still for that read-out and setting: the result for “ATTCTATTAGAGGGCT (sugars k2 d4 e3 k2 d5, PS)” reads 70%.
With AAGGAGTTGCTGAAAC (sugars k4 d9 k3, PS), the target mRNA inhibition is 32% with APOL1 (A431, 0.0625 µM); 48% with APOL1 (A431, 0.25 µM); 63% with APOL1 (A431, 1 µM).
In turn, “CGTGTTATATTTGATC (sugars kkddddkekekddddd, PS)” returned a target mRNA inhibition in the data set with APOL1 (A431, 2 µM) of 88%.
On to “TTTTGTAAGTGCAACC (sugars k3 d4 k3 e1 d5, PS)”, for which the target mRNA inhibition with APOL1 (A431, 0.0156 µM) is 38%; in the data set with APOL1 (A431, 0.04 µM) it was 38% and 24%; with APOL1 (A431, 0.0625 µM), 71%; with APOL1 (A431, 0.25 µM) it was 93%; with APOL1 (A431, 1 µM) it was 97% and 98% and 94%; with APOL1 (A431, 2 µM) it was 98%.
“CATTCAGAATTTCCAC (sugars kkdddddkekeddddd, PS)” gave a target mRNA inhibition with APOL1 (A431, 2 µM) of 84%.
Same read-out and setting: the result for “CTGTTCTAACTCTTGG (sugars k2 d4 e3 k2 d5, PS)” reads 93%; that for “GAAGATTGGCTCTGGC (sugars kkddddkdkdkddddd, PS)”, 79%.
Same read-out and setting: the result for “TTCAGAATTTCCACTA (sugars kddddkekekeddddd, PS)” reads 62%; that for “AAGTATTGCCAGCTAA (sugars k3 d5 k3 d5, PS)”, 90%; that for “CATTCAGAATTTCCAC (sugars kdddddkekekddddd, PS)”, 67%.
Consider GGCCGTGTCACCCTAA (sugars k4 d9 k3, PS), for which the target mRNA inhibition in the data set with APOL1 (A431, 0.0625 µM) worked out at 51%; with APOL1 (A431, 0.25 µM) it was 45%; with APOL1 (A431, 1 µM), 52%.
“CAGTTTTGTAAGTGCA (sugars kkddddekekeddddd, PS)” displayed a target mRNA inhibition with APOL1 (A431, 2 µM) of 91%.
Still for that read-out and setting: to “GTTCAAAAGCAGCATT (sugars kekddddeekkddddd, PS)” belongs 89%.
In the case of GGACATTGAACCTGGG (sugars k4 d9 k3, PS), the target mRNA inhibition was 50% with APOL1 (A431, 0.0625 µM); 78% with APOL1 (A431, 0.25 µM); 86% with APOL1 (A431, 1 µM).
“CTTTAAACTCAGGTGA (sugars kkddddekekeddddd, PS)” yielded a target mRNA inhibition with APOL1 (A431, 2 µM) of 91%.
On the same count and under the same terms, to “GTTCTAACTCTTGGGC (sugars kkkddddkekekdddd, PS)” belongs 37%.
On to “CTAATTTTCTGACTGT (sugars k3 d4 k3 e1 d5, PS)”, for which the target mRNA inhibition with APOL1 (A431, 0.0156 µM) was 35%; with APOL1 (A431, 0.04 µM), 59%; with APOL1 (A431, 0.0625 µM), 69%; with APOL1 (A431, 0.25 µM), 88%; with APOL1 (A431, 1 µM), 99% and 96%; with APOL1 (A431, 2 µM), 99%.
For “GGAATTATGGAATTGC (sugars kkdddddkekeddddd, PS)”, the target mRNA inhibition with APOL1 (A431, 2 µM) was 40%.
“ACACATCATTGGGTTA (sugars kddddkekekeddddd, PS)” gave a target mRNA inhibition with APOL1 (A431, 2 µM) of 36%.
For CACTTGAGTCATTTGC (sugars k4 d9 k3, PS), the target mRNA inhibition in the data set with APOL1 (A431, 0.0625 µM) came to 37%; with APOL1 (A431, 0.25 µM), 73%; with APOL1 (A431, 1 µM), 86%.
For the sequence ATGCTCACACTAATTA (sugars l4 d10 l2, PS), the target mRNA inhibition with SNHG14 (0.2 µM) was 35%; with SNHG14 (1 µM), 48%.
As for “TAAAATTATTTATACACCAT (sugars ldddlllddddddllldlll, PS)”, the target mRNA inhibition with SNHG14 (7.5 µM) worked out at 34%.
Same read-out and setting: the result for “TTTTATACCTTTCTTTAACC (sugars llddddldddddddldddll, PS)” reads 51%; that for “TTATAGCCATTCTATCT (sugars ldldddddddddldlll, PS)”, 53%.
“TTTCCATTTATTTCCATTT (sugars l4 d13 l2, PS)”: the target mRNA inhibition with SNHG14 (0.2 µM) was 47%; in the data set with SNHG14 (1 µM) it was 56%.
CCAGACTCCAATATTT (sugars l4 d10 l2, PS): the target mRNA inhibition came to 55% with SNHG14 (0.2 µM) and 39% in the data set with SNHG14 (1 µM).
As to “TAAAATTATTTATACACCAT (sugars llldldldddddddlldlll, PS)”, the target mRNA inhibition with SNHG14 (7.5 µM) stood at 21%.
Regarding “TTTACACTTAATTATACT (sugars l2 d12 l4, PS)”, the target mRNA inhibition with SNHG14 (0.2 µM) amounted to 7%; with SNHG14 (1 µM) it was 6%.
The like results for “ATTTCTCTATGTCACAT (sugars l3 d11 l3, PS)” were, in that order, 31% and 35%.
In the case of “AAAGATCATTCTCAACAA (sugars lddlldddddddldllll, PS)”, in the data set with SNHG14 (7.5 µM), the target mRNA inhibition was determined as 66%.
With TACTCTGCAATACACC (sugars l2 d12 l2, PS), in the data set with SNHG14 (7.5 µM), the target mRNA inhibition worked out at 59%.
Same read-out and setting: the result for “TTTTAACCAGAGTGGCATCC (sugars l2 d16 l2, PS)” reads 59%.
As to “TCTCAAAGATCATTCTC (sugars l3 d11 l3, PS)”, the target mRNA inhibition with SNHG14 (0.2 µM) was found to be 57%; with SNHG14 (1 µM) it was 63%.
As to “TTTATCAATATCTTCTCA (sugars lllldldddddddlddll, PS)”, the target mRNA inhibition with SNHG14 (7.5 µM) worked out at 62%.
In the data set with SNHG14 (7.5 µM), “TTCTGTATACACCATCCC (sugars ldlddddddddddlddll, PS)” came in with a target mRNA inhibition of 63%.
Same read-out and setting: to “TTACACTTAATTATACTTCC (sugars ldldldldddddddddldll, PS)” belongs 65%.
“ATCATTCTCAACAATTAAA (sugars l5 d8 l2 d2 l2, PS)” returned a target mRNA inhibition in the data set with SNHG14 (7.5 µM) of 57%.
As to CACCACTGATTTCCTT (sugars l3 d10 l3, PS), the target mRNA inhibition in the data set with SNHG14 (0.2 µM) turned out to be 43%; with SNHG14 (1 µM), 53%.
In the same order, the values of “CTTCCCTTTGATAACAT (sugars l3 d11 l3, PS)” are 20% and 43%.
“TTTTTTCTTACTATCTTCAA (sugars lldldddddddddddldlll, PS)”: the target mRNA inhibition in the data set with SNHG14 (7.5 µM) was 51%.
